Patent US9365588B2, “Benzoxazines as modulators of ion channels” (Vertex Pharmaceuticals Incorporated, priority 2011, dated 2016)

Target: human NaV 1.7 (Homo sapiens, UniProt Q15858)
Assay: E-VIPR optical membrane potential assay with electrical stimulation
Format: cell-based
Conditions: sodium channel inhibition; read-out: Binned Activity Data (IC50)
In short: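 Membrane-potential read-out: background-subtracted 460 nm/580 nm ratio during a 9 s current-controlled stimulus, 400 Hz scan. Before stimulation, NaV1.7-HEK cells carried coumarin/oxonol dye and compound (final DMSO 0.625%) for 20–35 min at room temperature; tetracaine 125 μM served as positive control.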

Sequence of human NaV 1.7 (Q15858 whole entry): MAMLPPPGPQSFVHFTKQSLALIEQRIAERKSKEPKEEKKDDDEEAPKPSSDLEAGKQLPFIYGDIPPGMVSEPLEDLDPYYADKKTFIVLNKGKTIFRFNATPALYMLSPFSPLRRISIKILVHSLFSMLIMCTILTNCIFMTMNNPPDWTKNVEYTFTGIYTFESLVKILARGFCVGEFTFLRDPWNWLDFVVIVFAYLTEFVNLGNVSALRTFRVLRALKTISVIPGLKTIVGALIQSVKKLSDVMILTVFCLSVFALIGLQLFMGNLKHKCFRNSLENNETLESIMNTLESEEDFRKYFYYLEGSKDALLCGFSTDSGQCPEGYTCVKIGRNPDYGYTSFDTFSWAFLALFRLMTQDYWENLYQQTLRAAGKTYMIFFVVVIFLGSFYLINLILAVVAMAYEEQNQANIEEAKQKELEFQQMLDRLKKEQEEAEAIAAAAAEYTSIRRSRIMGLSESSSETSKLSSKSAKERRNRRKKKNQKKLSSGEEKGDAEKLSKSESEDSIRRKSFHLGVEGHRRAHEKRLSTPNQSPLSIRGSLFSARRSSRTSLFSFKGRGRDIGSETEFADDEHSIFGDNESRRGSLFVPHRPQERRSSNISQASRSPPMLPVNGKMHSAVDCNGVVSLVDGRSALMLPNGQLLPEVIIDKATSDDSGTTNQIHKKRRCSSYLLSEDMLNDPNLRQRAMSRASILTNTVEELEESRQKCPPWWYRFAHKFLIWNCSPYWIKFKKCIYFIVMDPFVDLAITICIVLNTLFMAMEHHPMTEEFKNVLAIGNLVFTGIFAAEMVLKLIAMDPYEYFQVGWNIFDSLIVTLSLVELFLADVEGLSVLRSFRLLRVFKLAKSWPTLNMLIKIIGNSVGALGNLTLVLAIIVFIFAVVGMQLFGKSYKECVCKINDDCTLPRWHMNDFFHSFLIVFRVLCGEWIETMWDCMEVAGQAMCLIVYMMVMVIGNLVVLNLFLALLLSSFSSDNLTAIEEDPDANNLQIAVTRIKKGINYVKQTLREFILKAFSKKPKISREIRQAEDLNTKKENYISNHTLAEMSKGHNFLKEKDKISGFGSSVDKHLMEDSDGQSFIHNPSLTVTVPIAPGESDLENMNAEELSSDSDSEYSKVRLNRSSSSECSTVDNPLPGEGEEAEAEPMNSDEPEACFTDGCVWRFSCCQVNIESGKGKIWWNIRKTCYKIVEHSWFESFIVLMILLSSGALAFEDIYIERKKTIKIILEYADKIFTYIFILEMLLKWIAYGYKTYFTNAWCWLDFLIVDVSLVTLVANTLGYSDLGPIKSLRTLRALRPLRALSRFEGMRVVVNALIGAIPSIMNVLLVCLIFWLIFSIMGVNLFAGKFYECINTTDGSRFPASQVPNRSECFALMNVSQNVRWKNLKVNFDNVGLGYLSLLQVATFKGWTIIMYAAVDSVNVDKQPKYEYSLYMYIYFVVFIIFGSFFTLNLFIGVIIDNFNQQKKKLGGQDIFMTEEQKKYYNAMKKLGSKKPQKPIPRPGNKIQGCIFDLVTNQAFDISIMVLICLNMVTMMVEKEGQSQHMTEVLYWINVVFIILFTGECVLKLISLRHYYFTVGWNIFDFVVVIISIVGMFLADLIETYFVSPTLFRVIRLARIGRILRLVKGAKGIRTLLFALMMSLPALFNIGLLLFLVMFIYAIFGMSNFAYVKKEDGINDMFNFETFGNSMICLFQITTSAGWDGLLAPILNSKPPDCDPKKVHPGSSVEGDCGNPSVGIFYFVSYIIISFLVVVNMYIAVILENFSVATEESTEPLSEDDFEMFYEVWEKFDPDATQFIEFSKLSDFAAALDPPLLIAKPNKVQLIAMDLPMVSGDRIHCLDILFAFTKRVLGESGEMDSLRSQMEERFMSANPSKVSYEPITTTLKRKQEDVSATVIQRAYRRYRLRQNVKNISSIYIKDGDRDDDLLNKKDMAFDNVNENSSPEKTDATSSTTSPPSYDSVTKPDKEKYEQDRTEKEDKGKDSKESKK

## Cn1ncc2c1-c1ccccc1OC21CCN(C(=O)c2cccc(OC(F)(F)F)c2)CC1 [Compound 619]
  IC50: > 5000 nM

## COc1ccc(C(=O)N2CCC3(CC2)Oc2ccccc2-c2c3cnn2C)cc1OC [Compound 620]
  IC50: ≤ 2000 nM

## CC(C)S(=O)(=O)c1ccc(C(=O)N2CCC3(CC2)Oc2ccccc2-n2c(C(F)(F)F)ccc23)cc1 [Compound 621]
  IC50: ≤ 2000 nM

## COc1cc(C(C)(C)O)ccc1C(=O)N1CCC2(CC1)Oc1ccccc1-n1c(C#N)ccc12 [Compound 622]
  IC50: ≤ 2000 nM

## Cn1ncc2c1-c1ccc(Cl)cc1OC21CCN(C(=O)c2ccccc2OC(F)F)CC1 [Compound 623]
  IC50: ≤ 2000 nM

## Cn1ncc2c1-c1ccccc1OC21CCN(C(=O)c2ccc(S(=O)(=O)C(F)F)cc2)CC1 [Compound 626]
  IC50: ≤ 2000 nM

## COc1cc(C)ccc1C(=O)N1CCC2(CC1)Oc1cc(Cl)ccc1-n1cccc12 [Compound 627]
  IC50: ≤ 2000 nM

## COCCOc1cc(F)c(C(=O)N2CCC3(CC2)Oc2cc(Cl)ccc2-n2cccc23)cc1OC [Compound 628]
  IC50: ≤ 2000 nM

## CCCOc1ccc(C(=O)N2CCC3(CC2)Oc2cc(F)ccc2-n2cccc23)cc1C(F)(F)F [Compound 631]
  IC50: ≤ 2000 nM

## COc1cc(C(=O)N2CCC3(CC2)Oc2cc(F)ccc2-n2cccc23)ccc1OCC1CCCO1 (stereo not shown) [Compound 632]
  IC50: ≤ 2000 nM

## Cc1cc(C(C)(C)O)ccc1C(=O)N1CCC2(CC1)Oc1ccccc1-n1c(C#N)ccc12 [Compound 633]
  IC50: ≤ 2000 nM

## COc1cc(C(=O)N2CCC3(CC2)Oc2cc(Cl)ccc2-n2cccc23)ccc1CCO [Compound 635]
  IC50: ≤ 2000 nM

## Cn1ncc2c1-c1ccccc1OC21CCN(C(=O)c2ccc(OC(F)(F)F)c(Cl)c2)CC1 [Compound 636]
  IC50: ≤ 2000 nM

## COc1cc(C(C)(C)O)ccc1C(=O)N1CCC2(CC1)Oc1ccccc1-c1c2cnn1C [Compound 637]
  IC50: ≤ 2000 nM

## C[C@@](O)(CO)c1ccc(C(=O)N2CCC3(CC2)Oc2ccccc2-n2c(C(F)(F)F)ccc23)cc1 [Compound 640]
  IC50: ≤ 2000 nM

## COc1ncccc1C(=O)N1CCC2(CC1)Oc1ccccc1-c1c2cnn1C [Compound 642]
  IC50: 2000 to 5000 nM

## Cn1ncc2c1-c1ccccc1OC21CCN(C(=O)c2ccc(S(=O)(=O)C(C)(C)C)cc2)CC1 [Compound 643]
  IC50: 2000 to 5000 nM

## Cn1ncc2c1-c1ccccc1OC21CCN(C(=O)c2cccc3cnn(C)c23)CC1 [Compound 644]
  IC50: > 5000 nM

## COc1ccc(C(=O)N2CCC3(CC2)Oc2ccccc2-c2nn(C)cc23)c(OC)c1OC [Compound 646]
  IC50: ≤ 2000 nM

## CC(C)Oc1ccc(C(=O)N2CCC3(CC2)Oc2ccccc2-c2c3cnn2C)cc1F [Compound 650]
  IC50: ≤ 2000 nM

## Cn1ncc2c1-c1ccccc1OC21CCN(C(=O)c2cccc3cccnc23)CC1 [Compound 651]
  IC50: ≤ 2000 nM

## Cn1cc2c(n1)-c1ccccc1OC21CCN(C(=O)c2ccnc3ccccc23)CC1 [Compound 652]
  IC50: ≤ 2000 nM

## Cn1ncc2c1-c1cc(Cl)ccc1OC21CCN(C(=O)c2ccccc2OC(F)(F)F)CC1 [Compound 653]
  IC50: ≤ 2000 nM

## Cc1cc(C(=O)N2CCC3(CC2)Oc2ccccc2-n2c(C#N)ccc23)ccc1OC(C)C [Compound 655]
  IC50: ≤ 2000 nM

## Cn1ncc2c1-c1ccccc1OC21CCN(C(=O)c2nccc3ccccc23)CC1 [Compound 657]
  IC50: > 5000 nM

## Cc1nc(C(=O)N2CCC3(CC2)Oc2ccccc2-n2c(C(F)(F)F)ccc23)ccc1OC(C)C [Compound 658]
  IC50: ≤ 2000 nM

## N#Cc1ccc2n1-c1ccccc1OC21CCN(C(=O)c2ccc(F)c(Cl)c2)CC1 [Compound 659]
  IC50: > 5000 nM

## COc1cc(OC)c(C(=O)N2CCC3(CC2)Oc2cc(F)ccc2-n2cccc23)cc1CO [Compound 660]
  IC50: ≤ 2000 nM

## CC(C)S(=O)(=O)c1ccc(C(=O)N2CCC3(CC2)Oc2cc(F)ccc2-c2c3cnn2C)cc1 [Compound 662]
  IC50: 2000 to 5000 nM

## Cn1ncc2c1-c1ccccc1OC21CCN(C(=O)c2ccc(S(=O)(=O)C(F)(F)F)cc2)CC1 [Compound 663]
  IC50: ≤ 2000 nM

## COc1ccc(C(=O)N2CCC3(CC2)Oc2ccccc2-c2c3cnn2C)c(OC(F)(F)F)c1 [Compound 664]
  IC50: ≤ 2000 nM

## COc1c(F)cccc1C(=O)N1CCC2(CC1)Oc1cc(Cl)ccc1-n1c(C#N)ccc12 [Compound 665]
  IC50: ≤ 2000 nM

## CC(C)[S+]([O-])c1ccc(C(=O)N2CCC3(CC2)Oc2ccccc2-c2c3cnn2C)cc1 (stereo not shown) [Compound 666]
  IC50: 2000 to 5000 nM

## Cn1ncc2c1-c1ccccc1OC21CCN(C(=O)c2ccc(Cl)cc2S(C)(=O)=O)CC1 [Compound 667]
  IC50: > 5000 nM

## COc1cc(C(=O)N2CCC3(CC2)Oc2ccccc2-c2c3cnn2C)ccc1OC[C@@H](C)OC [Compound 668]
  IC50: ≤ 2000 nM

## CCc1ccc(C(=O)N2CCC3(CC2)Oc2cc(COC)ccc2-n2cccc23)cc1OC [Compound 669]
  IC50: ≤ 2000 nM

## Cn1cc(C(=O)N2CCC3(CC2)Oc2cc(Cl)ccc2-n2cccc23)ccc1=O [Compound 670]
  IC50: > 5000 nM

## N#Cc1ccc2n1-c1ccccc1OC21CCN(C(=O)c2ccc(O)cc2)CC1 [Compound 671]
  IC50: ≤ 2000 nM

## COc1ccccc1C(=O)N1CCC2(CC1)Oc1ccccc1-c1c2cnn1C [Compound 672]
  IC50: ≤ 2000 nM

## COc1c(Cl)cccc1C(=O)N1CCC2(CC1)Oc1ccccc1-c1c2cnn1C [Compound 673]
  IC50: ≤ 2000 nM

## CCn1ncc2c1-c1cc(F)ccc1OC21CCN(C(=O)c2ccccc2OC)CC1 [Compound 674]
  IC50: 2000 to 5000 nM

## CNS(=O)(=O)c1ccc(C(=O)N2CCC3(CC2)Oc2ccccc2-n2c(C(F)(F)F)ccc23)cc1 [Compound 675]
  IC50: ≤ 2000 nM

## Cc1cc(C(=O)N2CCC3(CC2)Oc2ccccc2-n2c(CNC=O)ccc23)ccc1OC(C)C [Compound 677]
  IC50: ≤ 2000 nM

## COc1cc(C(=O)N2CCC3(CC2)Oc2ccccc2-n2cccc23)ccc1OC1CCC(O)C1 (stereo not shown) [Compound 678]
  IC50: ≤ 2000 nM

## CC(C)S(=O)(=O)c1ccc(C(=O)N2CCC3(CC2)Oc2cc(Cl)ccc2-n2c(C#N)ccc23)cc1 [Compound 679]
  IC50: 2000 to 5000 nM

## CC[C@@H](C)Oc1ccc(C(=O)N2CCC3(CC2)Oc2cc(Cl)ccc2-n2cccc23)cc1OC [Compound 681]
  IC50: ≤ 2000 nM

## CC(C)(O)Cc1ccc(C(=O)N2CCC3(CC2)Oc2ccccc2-n2c(C(F)(F)F)ccc23)cc1 [Compound 682]
  IC50: ≤ 2000 nM

## COc1cc(C(=O)N2CCC3(CC2)Oc2cc(F)ccc2-n2cccc23)ccc1O[C@@H]1CCOC1 [Compound 683]
  IC50: ≤ 2000 nM

## C[S+]([O-])c1ccc(C(=O)N2CCC3(CC2)Oc2ccccc2-n2c(C#N)ccc23)cc1C(F)(F)F (stereo not shown) [Compound 684]
  IC50: ≤ 2000 nM

## CC(C)(CO)S(=O)(=O)c1ccc(C(=O)N2CCC3(CC2)Oc2ccccc2-n2c(C(F)(F)F)ccc23)cc1 [Compound 685]
  IC50: 2000 to 5000 nM

## COc1cc(C(=O)N2CCC3(CC2)Oc2ccccc2-n2c(C#N)ccc23)ccc1OC(C)(C)C [Compound 686]
  IC50: ≤ 2000 nM

## COc1cc(C(=O)N2CCC3(CC2)Oc2ccccc2-n2cccc23)ccc1OCC(N)=O [Compound 687]
  IC50: ≤ 2000 nM

## Cc1cc(C(=O)N2CCC3(CC2)Oc2ccccc2-c2nn(C)cc23)ccc1OC(C)C [Compound 689]
  IC50: ≤ 2000 nM

## COc1cc(C(=O)N2CCC3(CC2)Oc2cc(Cl)ccc2-n2cccc23)ccc1O[C@H]1CCOC1 [Compound 690]
  IC50: 2000 to 5000 nM

## COc1cc(C(=O)N2CCC3(CC2)Oc2cc(F)ccc2-n2cccc23)ccc1OC[C@@H]1COC(C)(C)O1 [Compound 693]
  IC50: ≤ 2000 nM
